In patent US9650674B2, “Nucleic acid probes and methods of using the same” (Board of Trustees University of Arkansas, priority 2012, dated 2017):
{Cy5.5} = Cy5.5 cyanine dye label

Legend:
DNase I = molecular target: T1, DNase I (Homo sapiens, UniProt P24855); test: Kinetic fluorescence of probes exposed to DNase I in vitro; format: biochemical
T1 construct: purchased Sigma (St. Louis, Mo.)
T1 sequence (P24855 23-282): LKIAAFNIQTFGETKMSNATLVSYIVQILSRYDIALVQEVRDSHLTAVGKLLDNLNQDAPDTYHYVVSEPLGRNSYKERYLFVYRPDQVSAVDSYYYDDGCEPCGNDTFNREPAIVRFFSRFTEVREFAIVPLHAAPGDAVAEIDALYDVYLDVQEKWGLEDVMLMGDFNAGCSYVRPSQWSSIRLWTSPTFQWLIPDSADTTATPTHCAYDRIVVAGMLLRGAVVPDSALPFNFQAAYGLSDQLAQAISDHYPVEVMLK
Method: It was hypothesized that exposure of the probes to endonucleases would lead to DNA cleavage and dissociation of protruded strand from the hairpin (FIG. 2A). To assess which of the proposed probes is the best to measure endonuclease activity, the probes (0.5 μM) were exposed with recombinant human DNase I (1 μg/ml) and the kinetic fluorescence curves were recorded. Twenty min into the reaction, AB259.1, AB259.3 and AB259.5 gained 1.75-, 2.6- and 1.62-fold fluorescence, respectively, compared to the baseline (FIG. 2B). At 20-25 min, AB259.1 and AB259.3 reached the plateaus. […] Therefore, AB259.3 was chosen for further experiments.
To detect specificity of the assay to DNase I that is a Ca/Mg-dependent endonuclease, AB259.3 probe was tested with 1 μg/ml DNase I in the presence of Ca++ and Mg++ (EAA buffer), in absence of the cations (deionized water), or in excess of EDTA (200 μM). […] Finally, it was tested whether AB259.3 probe will detect inhibition of DNase I activity by DNase I inhibitors such as ZnCl2 and Zn-diisopropyl salicylate (Zn-DIPS).
All cell-free experiments were performed using the Bio-Tek Synergy 5 fluorescent plate reader. Before experiments, optimal excitation and emission wavelengths were determined. For this, excitation and emission were scanned in the ranges of 600-680 nm and 690-705 nm, respectively. The optimal excitation/emission was determined to be 665/703 nm. All kinetic and endpoint measurements were done in a total volume of 100 μl at 37° C. Unless stated otherwise, DNA substrate was used in final concentration 0.5 μM reconstituted in endonuclease activity assay (EAA) buffer (2 mM CaCl2, 5 mM MgCl2, 10 mM Tris-HCl, pH 7.4) in a 96-well plate. After measurement of starting fluorescence, DNase I or tested material (diluted 1:20 urine or 1:100 serum) were added to the reconstituted probe, rapidly mixed and fluorescence was monitored for up to 60 min with 30-sec intervals. In some instances, EDTA (final concentration 200 μM) or NaOH (50 mM) was added to terminate the reaction. For the experiments that involved assessment of fluorescence after DNA denaturing, probes were tested in Cepheid real-time PCR system using Cy5 setting (Sunnyvale, Calif.).

[1] = tested on: wild-type (WT) mouse kidney cryosections; test: Endonuclease activity ex vivo in kidney cryosections; conditions: 5 μM probe, EAA buffer, 37° C.
Method: Next it was examined whether AB259.3 probe can be used for measurement of endonuclease activity in tissue sections. Kidneys were used because they are known for high activity of DNase I (Ca/Mg-dependent endonuclease). Freshly prepared 10 μm thick cryosections of wild-type (WT) mouse kidney were exposed with 5 μM AB259.3 probe in presence of EAA buffer at 37° C. and time-lapse imaged for 10 min with 1-min intervals.
Specimens of kidney, liver, spleen and testis tissues were removed from euthanized mice, immersed in OCT medium, rapidly frozen by Fisher Freeze-it and kept on dry ice for no longer than 1 hour prior slicing. Tissue cryosections (8-μm thick) were prepared using the Microm HM 505E cryotome, placed to the Fisher Plus slides and immediately exposed with 0.5 μM AB259.3 probe diluted in EAA buffer. In control samples, applied probe contained EAA buffer supplemented with 200 μM EDTA. Images were taken in 628/40-692/40 spectrum every 30 sec for 10 min in 10 random XY coordinates. Three sections from each specimen were analyzed separately. Maximal velocity of increasing fluorescence was averaged for each section.

Substance: [Cy5.5]AACACTCCGATGAGTGTAGAATGT[Cy5.5] (DNA, 5' {Cy5.5}, 3' {Cy5.5}, backbone not given here) [AB259.3, hairpin DNA probe with Cy5.5 at both ends, protruding strand +5]
- dependence of kinetic reaction on DNase I concentration (DNase I; different concentrations of DNase I, FIG. 2C): linear correlation between mean velocity (Vm) of the kinetic reaction and DNase I concentration
- gain of fluorescence compared to baseline (DNase I; probe 0.5 μM, DNase I 1 μg/ml, twenty min into the reaction, FIG. 2B): 2.6 fold
- time to plateau of fluorescence [1]: 2 to 3 min
- increase of Cy5.5 fluorescence compared to starting point ([1]; 10 min, FIGS. 5A and 5B): 2.5 times
